For data set [1] the following is noted: animal experiments, rats and mice; cited from earlier work.
Data set [2] is described as follows: Acute toxicity in the mouse (LD 50, Miller and Tainter). The following applies: in vivo, oral. On the procedure: The acute toxicity of α-lipoic acid in the mouse (expressed in the LD 50 mg/kg; Method after Miller and Tainter: Proc. Soc. Exper. Biol. a. Med. 57 (1944) 261) is, for example, in oral application above 400 mg/kg body weight, that of dihydrolipoic acid above 200 mg/kg body weight mouse.

A short description of data set [3]: Plasma level at normal oral dosage. It is filed as in vivo. As to conditions: side effect-free dosage.
The conditions of data set [4]: cited from earlier work.
A further data set has as its system HIV-1. Description: Reduction of infectious viruses (HIV-1) in cell culture supernatant in vitro. The format is cell-based. As to the method: For example the compounds of Formula I have a good, growth-inhibiting effect on HIV (type 1 and 2) which may be shown in vitro for example in the following virological-cell biological test processes:
3. Determination of reverse transcriptase in culture supernatant
4. Determination of the p24 antigen in culture supernatant
Thus, for example, a single dose of 0.035 mg/ml of compound I (for example alpha-lipoic acid, racemate) reduces the number of infectious viruses (for example HIV-1) in cell culture supernatant from 100% in the positive control to 0%.
For the in vitro trials the active substance of Formula I is used, for example in benzyl alcohol as solvent.
For in vitro investigations into the replication behavior of retroviruses, in particular HIV, it is for example possible to use the following substrates:
1. Virus-containing RPMI 1640 medium, for example 1X liquid 041-01875 (synthetic culture medium from Gibeo according to Moore, Gerner and Franklin, H.A. (1967), J.A.M.A. 199; 519) with a concentration of 2×10^3 -1×10^4 infectious units (PFU)/ml.
2. The cell lines Jurkat Clone E6-1, Sup T1 and HeLa CT4.

For data set [5], the system named is peripheral blood lymphocytes. In words: Proliferation rate or lethality of peripheral blood lymphocytes. It is filed as cell-based. As to conditions: 70 μg/ml.
Data set [6] has as its system HIV from patient lymphocytes. Description: Virus isolation with cocultivation (standard method) from patient lymphocytes. The format is in vivo, human patients (HIV). On the procedure:
(§1) Virus isolation with cocultivation: patient lymphocytes are cocultivated with donor lymphocytes. The virus produced by these cells (p24) is measured using an ELISA after 21 days (standard method).
(§2) The following results were recorded in 4 patients in Walter Reed stage 6. Application of α-lipoic acid was, by means of infusion of an α-lipoic acid solution having the following composition: 10 ml of aqueous solution containing 250 mg of α-lipoic acid in the form of the ethylene diamine salt (=323 mg salt) as well as 1 g of 1,2-propylene glycol and 100 mg of benzyl alcohol.

The test system of data set [7] is HIV-1 in permanently infected Molt4 cells. In words: Reverse transcriptase test, tumor cell line (Molt4) permanently infected with HIV-1. As to conditions: 70 μg/ml, FIG. 1. The format is cell-based. The text has this:
(§3) The inhibitory effect is shown in a cell line permanently infected with HIV-1.
(§4) 1. Negative (non infected) cells (for example Molt 4) are removed from the culture bottle with RPMI 1640 culture medium and centrifuged down in an appropriate vessel. As a basic principle, the negative cells may be the cells from any CD4 receptor-positive T-cell line. It is, for example, possible to use the following commercially available cell lines: H9, Hut78, SupT1, Jurkat, Molt4. Molt4 is for example a monoclonal T-cell line of the peripheral blood of a cancer patient. T-cell lines are derived from human tumors, for example from specific forms of leukemia. Cell lines of this type grow permanently as long as they are kept in the appropriate culture medium and CO2 concentration in an incubator at 37° C. These lines may be purchased from the American Type Culture Collection (ATCC).
2. These Molt4 cells are then resuspended (taken up) in highly virus-containing culture medium (RPMI 1640+10% fetal calf serum) placed in a culture flask and incubated (cultivated) for ca. 12 hours in an incubator at 37° C. and 5% CO2. […]
5. […] The infection is for example determined using immunofluorescence. […] Every three days culture medium and α-lipoic acid are replaced and the activity of the virus determined in the reverse transcriptase and plaque test. […]

The next data set has as its system HIV. Description: Virological markers overall in HIV-infected patients. It is filed as in vivo. As to the method:
(§5) Determination of the plasma p24 antigen level using a commercial ELISA; p24 is the designation for a structural protein of the HIV virus; ELISA (Enzyme Linked Immuno Sorbent Assay) is a test technique frequently used in virology in order to determine proteins, antigens, etc.
as §1
(§6) Virus isolation without cocultivation: the production of virus (p24) from 1×10^6 patient lymphocytes is quantitatively measured using an ELISA after 11 days. No donor lymphocytes are added in this standardized method. Virus production may be quoted in pg^1 p24/ml/200,000 cells. (Newly developed method). Cell titration: virus isolation is carried out starting from a decreasing number of patient lymphocytes (e.g. 10^6, 10^5, 10^4).
(§7) Determination of the plasma titer which states the number of infectious viruses in the plasma.
as §2

In the next data set the test system is infectious HIV in plasma. Description: Plasma titer (number of infectious viruses in the plasma). It is filed as in vivo, human patients (HIV). As to the method:
as §7, §2

Data set [8] has as its system HIV p24 production from patient lymphocytes. In words: Virus isolation without cocultivation, p24 production of patient lymphocytes. The format is in vivo, human patients (HIV). As to the method:
as §6, §2

The next data set has as its system plasma p24 antigen (HIV). Description: Plasma p24 antigen level (ELISA) in HIV-infected patients. It is filed as in vivo, human patients (HIV). On the procedure: as §5, §2
Walter Reed stages: division of HIV-infected patients according to the degree of their clinical symptoms. In stage 0 no HIV virus can be detected. Stage 6 relates to the final stage of AIDS.

Data set [9] has as its system HIV-1 in permanently infected Molt4 cells. In words: Plaque test, tumor cell line (Molt4) permanently infected with HIV-1. The format is cell-based.
Excerpt: as §3, §4
2. These Molt4 cells are then resuspended (taken up) in highly virus-containing culture medium (RPMI 1640+10% fetal calf serum) placed in a culture flask and incubated (cultivated) for ca. 12 hours in an incubator at 37° C. and 5% CO2. This infects part (depending on the concentration of the infectious virus) of the cells.
3. After 12 hours the cells are again separated by centrifugation and resuspended in fresh medium (RPMI 1640, containing no virus) and cultivated for ca. 4 weeks in an incubator.
4. Once every week the medium is completely replaced (separated by centrifugation, resuspended, etc.) and negative, non-infected cells are added.
5. After ca. 4 weeks 80-100% of the cells are infected=permanently infected cell line. The infection is for example determined using immunofluorescence. The cells infected in this manner produce HIV in a titer range of about 10^5 -10^6 infectious units (PFU). The tumor cell line permanently infected in this manner (Molt4) is treated for three weeks with 70 μg of α-lipoic acid/ml. Every three days culture medium and α-lipoic acid are replaced and the activity of the virus determined in the reverse transcriptase and plaque test. […]

Data set [10] has as its system HIV in freshly infected Jurkat cells. In words: Plaque test, freshly infected Jurkat cells. The format is cell-based. The following applies: 7 days.
Protocol: To compare both compounds, freshly split Jurkat cells were infected with HIV (8×10^3 PFU) and afterwards recombinant alpha interferon (rIF) (70 units/ml) or 35 ng/ml of α-lipoic acid was added thereto using a pipette. The experiment was concluded after 7 days in order to assess in particular the growth of the first virus generation.
Cells are taken up in fresh medium and may now be defined as being freshly infected cells. As distinct from permanently infected cells, far fewer cells are virus carriers, and therefore synchronously treated, i.e. the first and second virus generation is given off into the culture supernatant relatively at the same time on the 3rd and 7th day. These virus generations may be quantified on these days (plaque and reverse transcriptase test) and may be compared. The term "single hit kinetics" is also used in this context.
3. α-lipoic acid is added using a pipette.
Cells are cultured for 7 days in an incubator.
On day 4 and day 7 samples are withdrawn from the culture for plaque and RT assay.
The test system of data set [11] is HIV from patient lymphocytes. In words: Virus isolation with cell titration. It is filed as in vivo, human patients (HIV). As to the method:
as §6, §2

Setting [12] is: patient 2, towards the end and after conclusion of therapy.

Each structure is given as a SMILES string.

The values below come from patent US5334612A, “Pharmaceutical compositions containing as active substance sulphur-containing carboxylic acids and their use in combating retroviruses” (priority 1988, dated 1994).

What is called LD50 is the dose expected to kill half of the subjects tested.

`O=C(O)CCCCC(S)CCS` (stereo not drawn) [dihydrolipoic acid, 6,8-dimercapto-octanoic acid]: the “inactivation of snake venom” value in [1] is “inactivates snake venom”. For the same compound, the LD50 in [2] was greater than 200 mg/kg.

Turning to `O=C(O)CCCCC1CCSS1` (racemic) [α-lipoic acid], the “factor by which 70 μg/ml is above the plasma levels” value in data set [3] is 10-20 times. In addition, the pharmacological properties entry in data set [4] (racemate) was “anti-inflammatory, antinociceptive (analgesic) and cytoprotective properties”. In data set [4] (α-lipoic acid racemate), the “effect in fungus poisoning / coenzyme and growth factor roles” value is “acts as co-enzyme in many enzymatic reactions, constitutes a growth factor for certain bacteria and protozoas and is used in death-head fungus poisoning”. Moreover, the minimal effective concentration in the data set on HIV-1 (Human immunodeficiency virus 1, same test procedure, read-out: low dose at which a virus-inhibiting effect can be demonstrated) is 1 µg/mL. Moreover, the activity at 35 µg/mL with HIV-1 (Human immunodeficiency virus 1, single dose of 0.035 mg/ml, read-out: number of infectious viruses in cell culture supernatant (positive control 100%)) worked out at 0%. Moreover, the “proliferation rate or lethality of peripheral blood lymphocytes” value in data set [5] is recorded as “not substantially affected”. For the same compound, the “virus isolation from patient lymphocytes” value in data set [6] (cases 2 and 3, summary) is “totally negative”. In addition, the “virus isolation (standard method)” value in data set [6] (patient 1, throughout the entire therapy period) was “positive”. Moreover, in [6] (setting [12]), the virus isolation entry is “repeatedly negative”. Besides, the “time from which number of virus units produced falls” value in [7] is no less than 6 days. The inhibition at 70 µg/mL in [7] (Human immunodeficiency virus 1, MOLT-4, 504 h, after three weeks, read-out: reduction of number of virus units produced) is 90%; in data set [9] (Human immunodeficiency virus 1, MOLT-4, 72 h, read-out: reduction of infectious virus units) it was roughly 100%. Moreover, the virus markers result in the data set on HIV (setting [12]) is on record as “drastic fall in all virus markers”. Moreover, in the data set with HIV (patients with clearly measurable virological markers), the “improvement in virological markers” value is “marked improvement in these parameters”. This compound also showed a positive plasma titers in the data set on infectious HIV in plasma (cases 2 and 4, in the course of therapy, summary) of 0. Besides, the plasma titrations entry in the data set on infectious HIV in plasma (patient 3) is “always negative”. Besides, the plasma titer with infectious HIV in plasma (patient 4, during therapy, before therapy 10) stood at 0. For the same compound, in data set [8] (cases 2, 3 and 4, summary), the “virus production in virus isolations from patient lymphocytes” value is on record as “markedly lower virus production”. For the same compound, the “production of p24 antigen, change after end of therapy” value in data set [8] (patient 3, after the end of therapy) is on record as “rose again slowly”. In data set [8] (patient 3, by day 28, before therapy about 10), the “production of p24 antigen” value was 0 pg/ml 200,000 cells. Moreover, in data set [8] (patient 3, day 5 of therapy, before therapy about 10 pg/ml 200,000 cells), the “production of p24 antigen, change” value is on record as “doubled”. Also, in data set [8] (patient 4, after end of therapy, also treated with AZT), the “p24 production, change after end of therapy” value is recorded as “did not rise significantly”. The “p24 production/ml/200,000 cells, fall” value in data set [8] (patient 4, up to the end of therapy, before therapy 8 pg/ml, also being treated with AZT at this time) is 75%. Besides, the LD50 in data set [2] was greater than 400 mg/kg. In the data set with plasma p24 antigen (HIV) (cases 1 and 2, ca. 14 days, summary), the “plasma p24 antigen level, fraction of initial value” is 1/10. The “plasma p24 antigen level” value is 0.05 ng/mL in the data set with plasma p24 antigen (HIV) (patient 1, infusion, 14 days after commencement of therapy, before therapy 0.350 ng/ml); 0.025 ng/mL with plasma p24 antigen (HIV) (patient 1, infusion, day 29, before therapy 0.350 ng/ml); 0.25 ng/mL in the data set with plasma p24 antigen (HIV) (patient 1, infusion, until end of therapy (58 days), before therapy 0.350 ng/ml); “always negative” in the data set with plasma p24 antigen (HIV) (patient 3); 0.005 ng/mL in the data set on plasma p24 antigen (HIV) (patient 4, infusion, up to the 18th day of therapy, before/at beginning of therapy 0.070 ng/ml). Further, the “plasma p24 antigen level, initial fall” value with plasma p24 antigen (HIV) (patient 2, infusion, prior to treatment 0.4 ng/ml) was “barely the 10-fold value”. In the data set on plasma p24 antigen (HIV) (patient 4, after end of therapy), the “plasma p24 antigen level, change after end of therapy” value is “again rose to the initial values”. Further, in data set [9] (after 3 days, 70 μg/ml, FIG. 1), the “number of infectious virus units” value is recorded as “about 0”. Moreover, the development of tolerance entry in data set [9] (three weeks, 70 μg/ml) is “no sign or evidence of the development of tolerance after three weeks”. Moreover, in data set [10] (infected, not pre-treated Jurkat cells, α-lipoic acid 35 ng/ml (so in the source), rIF 70 units/ml, FIG. 2 and 3), the “inhibition of viral replication” value is “comparable inhibition”. Further, the “inhibition in the plaque test” value in [10] (α-lipoic acid 35 ng/ml (so in the source) vs rIF 70 units/ml, FIG. 3) is on record as “clearer”. The “cell titer, number of cells from which virus could be cultivated” value in data set [11] (patient 2, during treatment, before treatment 10^3 cells) is recorded as 10^5 cells. Besides, in [11] (patient 2, during treatment, before treatment 1000), the “cell titer, fall” value is “fell by two orders of magnitude”. The “results after conclusion of therapy” value in data set [11] (patient 4, after conclusion of therapy) is on record as “deteriorated once again”. Besides, the virus detection entry in data set [11] (patient 4, end of therapy (in the current range), before therapy virus clearly detected in 2×10^6 cells) is “hardly any viruses could be detected”.
